Data reported in patent US9796709B2, “5-hydroxy-4-(trifluoromethyl)pyrazolopyridine derivative” (Daiichi Sankyo Company, Limited, priority 2013, dated 2017).

What was measured:
cynomolgus monkey = assay: Drug efficacy test in cynomolgus monkeys (plasma HDL cholesterol); format: in vivo; details: Macaca fascicularis, oral, single dose of 10 mg/kg, from AUC before administration and 24 hours after administration, read-out: Rate of increase in HDL level after administration of single dose
Experimental: Each test drug was dissolved in a propylene glycol (Sigma-Aldrich Corp.)-Tween 80 (Sigma-Aldrich Corp.) mixed solution [4/1 (v/v)] or a 0.5% (w/v) methylcellulose aqueous solution, and the solution was orally administered to a cynomolgus monkey for 1 or 7 days. At day 1 or 7 of the administration period, blood was collected before administration and after administration, and plasma was obtained. The content of cholesterol in the plasma was measured using a commercially available assay kit (Cholesterol-E Wako, Wako Pure Chemical Industries, Ltd.). The lipoprotein profile was analyzed by HPLC (column: LipopropakXL, manufactured by Tosoh Corp.). The contents of HDL cholesterol and non-HDL cholesterol were calculated according to the following calculation expression: Content of HDL cholesterol=Content of cholesterol in the plasma×(Peak area of HDL cholesterol/Total sum of peaks) Content of non-HDL cholesterol=Content of cholesterol in the plasma×(Peak area of non-HDL cholesterol/Total sum of peaks)

LCAT = biological target: T1, LCAT (Homo sapiens, UniProt P04180); assay: LCAT activity measurement (in vitro), [14C]cholesterol esterification with HDL3 fraction; format: biochemical; details: HDL3 fraction from plasma of a healthy person as enzyme source and acceptor; 37° C., approximately 16 hours; relative to sample without test drug; read-out: EC50 of LCAT activation
T1 construct: The obtained fraction was dialyzed against phosphate-buffered saline (pH 7.4) and used as an enzyme source and an acceptor for LCAT; from tissue; host or cells: HDL3 fraction (1.125 < specific gravity < 1.210 g/mL) of plasma from a healthy person
T1 sequence (P04180 25-440): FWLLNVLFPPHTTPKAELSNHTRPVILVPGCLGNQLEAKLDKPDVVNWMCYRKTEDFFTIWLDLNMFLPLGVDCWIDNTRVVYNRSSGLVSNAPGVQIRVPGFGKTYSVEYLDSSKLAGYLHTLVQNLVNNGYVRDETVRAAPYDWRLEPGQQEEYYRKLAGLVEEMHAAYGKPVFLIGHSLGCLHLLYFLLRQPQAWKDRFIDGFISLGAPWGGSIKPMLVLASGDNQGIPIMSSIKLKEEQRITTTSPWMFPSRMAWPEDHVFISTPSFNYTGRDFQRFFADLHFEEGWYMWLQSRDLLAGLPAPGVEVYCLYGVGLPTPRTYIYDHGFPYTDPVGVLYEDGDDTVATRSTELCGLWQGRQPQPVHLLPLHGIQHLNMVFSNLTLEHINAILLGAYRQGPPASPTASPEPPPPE
Experimental: A fraction composed of HDL3 (1.125 <specific gravity <1.210 g/mL) was obtained from the plasma of a healthy person by density gradient centrifugation. The obtained fraction was dialyzed against phosphate-buffered saline (pH 7.4) and used as an enzyme source and an acceptor for LCAT. Each test drug was prepared by dissolution in dimethyl sulfoxide. [^14C]Cholesterol containing DTNB (Ellman's reagent, final concentration: 0.5 mM), mercaptoethanol (final concentration: 12.5 mM), and 0.6% bovine serum albumin was added to phosphate-buffered saline (pH 7.4) containing 1 mg/mL HDL3, and the test drug was further added thereto at varying concentrations to adjust the whole amount to 80 μL. This mixture was incubated at 37° C. for approximately 16 hours. Then, a mixed solution of hexane and isopropanol (mixing ratio=3:2) was added thereto to stop the reaction. After stirring, the hexane layer was collected, and this layer was evaporated to dryness. A chloroform solution (concentration: 10 mg/mL) was added thereto, and the mixture was spotted onto a thin-layer silica gel plate and developed using a mixed solution of hexane, diethyl ether, and ethyl acetate (mixing ratio=85:15:2). The radioactivity of a portion corresponding to cholesterol oleate was measured using an imaging analyzer BAS-2500 (manufactured by Fujifilm Corp.). A sample non-supplemented with the test drug was similarly treated and assayed. The EC50 value of LCAT activation was calculated according to the expression given below relative to LCAT activity in the sample non-supplemented with the test drug.
[formula] • wherein X represents the logarithm of the concentration of the test drug; • Y represents the responsiveness (LCAT activity) of the test drug; • Top represents the maximum value (maximum plateau); • Bottom represents the minimum value (minimum plateau); and • EC50 represents the 50% effective concentration.

Compound | change in vivo at 10 mg/kg (cynomolgus monkey) [%] | EC50 (LCAT) [nM]
O=C1Nc2[nH]nc(C3CCN(c4ccc(Cl)cn4)CC3)c2[C@@H](C(F)(F)F)[C@H]1O (single isomer, unassigned) [Example 22, (+)-cis-3-[1-(5-Chloropyridin-2-yl)piperidin-4-yl]-5-hydroxy-4-(trifluoromethyl)-1,4,5,7-tetrahydro-6H-pyrazolo[3,4-b]pyridin-6-one] | 581 | 32
O=C1Nc2[nH]nc(C3CCN(c4cc(C(F)(F)F)ncn4)CC3)c2[C@@H](C(F)(F)F)[C@H]1O (single isomer, unassigned) [Example 30, (+)-cis-5-Hydroxy-4-(trifluoromethyl)-3-{1-[6-(trifluoromethyl)pyrimidin-4-yl]piperidin-4-yl}-1,4,5,7-tetrahydro-6H-pyrazolo[3,4-b]pyridin-6-one] | 290 | 63
O=C1Nc2[nH]nc(C3CCN(c4cnc(C(F)(F)F)cn4)CC3)c2C(O)(C(F)(F)F)C1O (single isomer, unassigned; (+)) [Example 34, (+)-4,5-Dihydroxy-4-(trifluoromethyl)-3-{1-[5-(trifluoromethyl)pyrazin-2-yl]piperidin-4-yl}-1,4,5,7-tetrahydro-6H-pyrazolo[3,4-b]pyridin-6-one] | 590 | 4
O=C1Nc2[nH]nc(C3CCN(c4cnc(C(F)(F)F)cn4)CC3)c2[C@@H](C(F)(F)F)[C@H]1O (single isomer, unassigned) [Example 18, (+)-cis-5-Hydroxy-4-(trifluoromethyl)-3-{1-[5-(trifluoromethyl)pyrazin-2-yl]piperidin-4-yl}-1,4,5,7-tetrahydro-6H-pyrazolo[3,4-b]pyridin-6-one] | 644 | 9
O=C1Nc2[nH]nc(C3CCN(c4ccc(C(F)(F)F)cn4)CC3)c2[C@@H](C(F)(F)F)[C@H]1O (single isomer, unassigned) [Example 3, (+)-cis-5-Hydroxy-4-(trifluoromethyl)-3-{1-[5-(trifluoromethyl)pyridin-2-yl]piperidin-4-yl}-1,4,5,7-tetrahydro-6H-pyrazolo[3,4-b]pyridin-6-one] | 658 | 13
N#Cc1cnc(N2CCC(c3n[nH]c4c3[C@@H](C(F)(F)F)[C@@H](O)C(=O)N4)CC2)cc1C(F)(F)F (single isomer, unassigned) [Example 20, (+)-6-{4-[cis-5-Hydroxy-6-oxo-4-(trifluoromethyl)-4,5,6,7-tetrahydro-1H-pyrazolo[3,4-b]pyridin-3-yl]piperidin-1-yl}-4-(trifluoromethyl)pyridine-3-carbonitrile] | 454 | 51
O=C1Nc2[nH]nc(C3CCN(c4cnc(C(F)(F)F)nc4)CC3)c2[C@@H](C(F)(F)F)[C@H]1O (single isomer, unassigned) [Example 21, (+)-cis-5-Hydroxy-4-(trifluoromethyl)-3-{1-[2-(trifluoromethyl)pyrimidin-5-yl]piperidin-4-yl}-1,4,5,7-tetrahydro-6H-pyrazolo[3,4-b]pyridin-6-one] | 483 | 18
O=C1Nc2[nH]nc(C3CCN(c4ccc(C(F)(F)F)cn4)CC3)c2C(O)(C(F)(F)F)C1O (single isomer, unassigned; (+)) [Example 35, (+)-4,5-Dihydroxy-4-(trifluoromethyl)-3-{1-[5-(trifluoromethyl)pyridin-2-yl]piperidin-4-yl}-1,4,5,7-tetrahydro-6H-pyrazolo[3,4-b]pyridin-6-one] | 482 | 7
Cc1cc(N2CCC(c3n[nH]c4c3[C@@H](C(F)(F)F)[C@@H](O)C(=O)N4)CC2)cnc1C#N (single isomer, unassigned) [Example 27, (+)-5-{4-[cis-5-Hydroxy-6-oxo-4-(trifluoromethyl)-4,5,6,7-tetrahydro-1H-pyrazolo[3,4-b]pyridin-3-yl]piperidin-1-yl}-3-methylpyridine-2-carbonitrile] |  | 37
O=C1Nc2[nH]nc(C3CCN(c4cccc(C(F)(F)F)n4)CC3)c2[C@@H](C(F)(F)F)[C@H]1O (racemic) [Example 16, cis-5-Hydroxy-4-(trifluoromethyl)-3-{1-[6-(trifluoromethyl)pyridin-2-yl]piperidin-4-yl}-1,4,5,7-tetrahydro-6H-pyrazolo[3,4-b]pyridin-6-one] |  | 62
